Source: paper PMC6149898, “GPCR Modulation of Thieno[2,3-b]pyridine Anti-Proliferative Agents” (Molecules : A Journal of Synthetic Chemistry and Natural …, 2017)

Experiments:
BR:MCF7 = tested on: BR:MCF7; parameters: method as in earlier work; settings: NCI-60 panel; ref [4],[5],[6],[7]; cited from earlier work
BR:MDA-MB-231 = tested on: BR:MDA-MB-231; parameters: method as in earlier work; settings: NCI-60 panel; ref [4],[5],[6],[7]; cited from earlier work
CNS:SF-539 = tested on: CNS:SF-539; parameters: method as in earlier work; settings: NCI-60 panel; ref [4],[5],[6],[7]; cited from earlier work
LE:CCRF-CEM = tested on: LE:CCRF-CEM; parameters: method as in earlier work; settings: NCI-60 panel; ref [4],[5],[6],[7]; cited from earlier work
LC:HOP-62 = tested on: LC:HOP-62; parameters: method as in earlier work; settings: NCI-60 panel; ref [4],[5],[6],[7]; cited from earlier work
LC:NCI-H322M = tested on: LC:NCI-H322M; parameters: method as in earlier work; settings: NCI-60 panel; ref [4],[5],[6],[7]; cited from earlier work
OV:OVCAR-3 = tested on: OV:OVCAR-3; parameters: method as in earlier work; settings: NCI-60 panel; ref [4],[5],[6],[7]; cited from earlier work
OV:OVCAR-5 = tested on: OV:OVCAR-5; parameters: method as in earlier work; settings: NCI-60 panel; ref [4],[5],[6],[7]; cited from earlier work
OV:OVCAR-8 = tested on: OV:OVCAR-8; parameters: method as in earlier work; settings: NCI-60 panel; ref [4],[5],[6],[7]; cited from earlier work
RE:RXF 393 = tested on: RE:RXF 393; parameters: method as in earlier work; settings: NCI-60 panel; ref [4],[5],[6],[7]; cited from earlier work
ADRA2A = ADRA2A (Homo sapiens, UniProt P08913); assay: gpcrMAX PathHunter beta-arrestin
AVPR2 = AVPR2 (Homo sapiens, UniProt P30518); assay: gpcrMAX PathHunter beta-arrestin
CALCRL-RAMP1 = CALCRL-RAMP1 (Homo sapiens, UniProt O60894+Q16602); assay: gpcrMAX PathHunter beta-arrestin
CCR3 = CCR3 (Homo sapiens, UniProt P51677); assay: gpcrMAX PathHunter beta-arrestin
CCR8 = CCR8 (Homo sapiens, UniProt P51685); assay: gpcrMAX PathHunter beta-arrestin
CHRM5 = CHRM5 (Homo sapiens, UniProt P08912); assay: gpcrMAX PathHunter beta-arrestin
EBI2 = EBI2 (Homo sapiens, UniProt P32249); assay: gpcrMAX PathHunter beta-arrestin
EDG1 = EDG1 (Homo sapiens, UniProt P21453); assay: gpcrMAX PathHunter beta-arrestin
EDG5 = EDG5 (Homo sapiens, UniProt O95136); assay: gpcrMAX PathHunter beta-arrestin
F2R = F2R (Homo sapiens, UniProt P25116); assay: gpcrMAX PathHunter beta-arrestin
GHSR = GHSR (Homo sapiens, UniProt Q92847); assay: gpcrMAX PathHunter beta-arrestin
GPR92 = GPR92 (Homo sapiens, UniProt Q9H1C0); assay: gpcrMAX PathHunter beta-arrestin
GRPR = GRPR (Homo sapiens, UniProt P30550); assay: gpcrMAX PathHunter beta-arrestin
HRH1 = HRH1 (Homo sapiens, UniProt P35367); assay: gpcrMAX PathHunter beta-arrestin
HRH2 = HRH2 (Homo sapiens, UniProt P25021); assay: gpcrMAX PathHunter beta-arrestin
MRGPRX1 = MRGPRX1 (Homo sapiens, UniProt Q96LB2); assay: gpcrMAX PathHunter beta-arrestin
MRGPRX2 = MRGPRX2 (Homo sapiens, UniProt Q96LB1); assay: gpcrMAX PathHunter beta-arrestin
NMU1R = NMU1R (Homo sapiens, UniProt Q9HB89); assay: gpcrMAX PathHunter beta-arrestin
NTSR1 = NTSR1 (Homo sapiens, UniProt P30989); assay: gpcrMAX PathHunter beta-arrestin
OXTR = OXTR (Homo sapiens, UniProt P30559); assay: gpcrMAX PathHunter beta-arrestin
P2RY4 = P2RY4 (Homo sapiens, UniProt P51582); assay: gpcrMAX PathHunter beta-arrestin
PPYR1 = PPYR1 (Homo sapiens, UniProt P50391); assay: gpcrMAX PathHunter beta-arrestin
PROKR2 = PROKR2 (Homo sapiens, UniProt Q8NFJ6); assay: gpcrMAX PathHunter beta-arrestin
PTGER3 = PTGER3 (Homo sapiens, UniProt P43115); assay: gpcrMAX PathHunter beta-arrestin
PTGIR = PTGIR (Homo sapiens, UniProt P43119); assay: gpcrMAX PathHunter beta-arrestin
PTHR1 = PTHR1 (Homo sapiens, UniProt Q03431); assay: gpcrMAX PathHunter beta-arrestin
PTHR2 = PTHR2 (Homo sapiens, UniProt P49190); assay: gpcrMAX PathHunter beta-arrestin
SSTR1 = SSTR1 (Homo sapiens, UniProt P30872); assay: gpcrMAX PathHunter beta-arrestin
SSTR3 = SSTR3 (Homo sapiens, UniProt P32745); assay: gpcrMAX PathHunter beta-arrestin
TACR1 = TACR1 (Homo sapiens, UniProt P25103); assay: gpcrMAX PathHunter beta-arrestin

P2RY4, sequence (P51582 whole entry): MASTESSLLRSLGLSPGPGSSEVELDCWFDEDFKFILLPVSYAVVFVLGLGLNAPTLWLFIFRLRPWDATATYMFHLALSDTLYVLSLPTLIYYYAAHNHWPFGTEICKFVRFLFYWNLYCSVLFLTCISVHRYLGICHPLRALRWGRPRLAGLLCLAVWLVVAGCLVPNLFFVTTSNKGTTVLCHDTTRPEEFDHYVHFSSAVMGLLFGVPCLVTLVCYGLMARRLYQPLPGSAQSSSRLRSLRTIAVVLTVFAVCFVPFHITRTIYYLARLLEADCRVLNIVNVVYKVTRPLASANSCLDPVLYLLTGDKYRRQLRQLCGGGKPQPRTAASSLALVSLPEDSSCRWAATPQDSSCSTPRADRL
MRGPRX1, sequence (Q96LB2 whole entry): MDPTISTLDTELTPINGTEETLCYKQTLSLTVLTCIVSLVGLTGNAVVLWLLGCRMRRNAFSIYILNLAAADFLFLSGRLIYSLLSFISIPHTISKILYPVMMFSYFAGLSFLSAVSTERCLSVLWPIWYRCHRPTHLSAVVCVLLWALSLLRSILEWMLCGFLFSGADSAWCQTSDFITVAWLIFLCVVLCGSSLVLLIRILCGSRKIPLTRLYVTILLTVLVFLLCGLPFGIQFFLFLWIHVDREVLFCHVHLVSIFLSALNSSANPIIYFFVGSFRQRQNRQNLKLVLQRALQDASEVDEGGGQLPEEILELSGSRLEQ
PPYR1, sequence (P50391 whole entry): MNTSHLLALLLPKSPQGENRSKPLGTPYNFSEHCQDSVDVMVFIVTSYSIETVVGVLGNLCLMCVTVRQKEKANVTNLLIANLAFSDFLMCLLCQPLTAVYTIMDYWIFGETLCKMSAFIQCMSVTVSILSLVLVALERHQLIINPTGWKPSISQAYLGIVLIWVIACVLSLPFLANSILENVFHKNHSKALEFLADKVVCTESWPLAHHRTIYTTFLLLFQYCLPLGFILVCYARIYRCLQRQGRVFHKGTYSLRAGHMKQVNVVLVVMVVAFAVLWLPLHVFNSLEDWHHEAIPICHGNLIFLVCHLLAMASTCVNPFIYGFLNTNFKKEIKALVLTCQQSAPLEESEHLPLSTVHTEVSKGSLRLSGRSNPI
GPR92, sequence (Q9H1C0 whole entry): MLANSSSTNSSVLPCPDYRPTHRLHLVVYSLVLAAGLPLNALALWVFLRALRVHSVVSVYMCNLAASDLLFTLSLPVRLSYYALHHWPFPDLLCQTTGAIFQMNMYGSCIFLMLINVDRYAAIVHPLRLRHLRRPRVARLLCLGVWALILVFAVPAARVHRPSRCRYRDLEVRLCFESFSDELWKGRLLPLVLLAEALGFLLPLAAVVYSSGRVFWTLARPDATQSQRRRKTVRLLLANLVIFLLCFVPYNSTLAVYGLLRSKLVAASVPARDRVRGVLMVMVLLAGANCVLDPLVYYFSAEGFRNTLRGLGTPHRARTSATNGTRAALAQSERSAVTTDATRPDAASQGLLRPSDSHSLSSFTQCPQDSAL
HRH2, sequence (P25021 whole entry): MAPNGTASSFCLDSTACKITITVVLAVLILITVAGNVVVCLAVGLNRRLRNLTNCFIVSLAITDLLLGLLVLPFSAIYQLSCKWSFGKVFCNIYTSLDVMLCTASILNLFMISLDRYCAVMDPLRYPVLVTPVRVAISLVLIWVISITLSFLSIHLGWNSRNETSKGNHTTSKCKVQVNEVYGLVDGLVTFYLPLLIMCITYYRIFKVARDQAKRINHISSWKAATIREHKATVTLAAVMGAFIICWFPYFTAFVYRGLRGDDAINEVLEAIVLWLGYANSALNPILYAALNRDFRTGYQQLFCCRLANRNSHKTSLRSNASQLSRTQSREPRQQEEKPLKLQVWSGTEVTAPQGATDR
PTHR1, sequence (Q03431 27-593): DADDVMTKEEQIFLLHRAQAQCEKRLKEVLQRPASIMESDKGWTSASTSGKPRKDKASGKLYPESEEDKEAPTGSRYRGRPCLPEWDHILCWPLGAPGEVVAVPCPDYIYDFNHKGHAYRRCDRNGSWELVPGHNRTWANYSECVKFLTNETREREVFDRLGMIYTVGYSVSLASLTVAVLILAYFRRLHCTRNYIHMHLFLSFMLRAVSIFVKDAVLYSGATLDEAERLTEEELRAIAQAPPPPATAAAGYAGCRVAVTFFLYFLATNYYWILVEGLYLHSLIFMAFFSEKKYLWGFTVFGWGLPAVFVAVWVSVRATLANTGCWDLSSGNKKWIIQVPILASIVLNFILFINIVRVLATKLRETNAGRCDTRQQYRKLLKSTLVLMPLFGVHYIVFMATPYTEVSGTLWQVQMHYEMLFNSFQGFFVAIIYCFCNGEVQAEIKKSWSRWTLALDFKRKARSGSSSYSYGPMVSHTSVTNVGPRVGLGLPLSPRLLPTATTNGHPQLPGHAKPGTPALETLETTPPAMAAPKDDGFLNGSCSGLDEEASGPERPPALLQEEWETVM
EDG5, sequence (O95136 whole entry): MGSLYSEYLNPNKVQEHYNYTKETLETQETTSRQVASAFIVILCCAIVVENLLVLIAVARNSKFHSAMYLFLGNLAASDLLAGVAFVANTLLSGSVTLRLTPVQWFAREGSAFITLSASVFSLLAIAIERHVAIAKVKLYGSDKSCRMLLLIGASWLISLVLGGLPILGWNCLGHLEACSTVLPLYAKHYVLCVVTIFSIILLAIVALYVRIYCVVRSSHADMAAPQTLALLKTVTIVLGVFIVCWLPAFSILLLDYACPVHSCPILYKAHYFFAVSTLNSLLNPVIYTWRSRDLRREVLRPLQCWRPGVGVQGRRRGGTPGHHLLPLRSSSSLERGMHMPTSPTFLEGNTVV
MRGPRX2, sequence (Q96LB1 whole entry): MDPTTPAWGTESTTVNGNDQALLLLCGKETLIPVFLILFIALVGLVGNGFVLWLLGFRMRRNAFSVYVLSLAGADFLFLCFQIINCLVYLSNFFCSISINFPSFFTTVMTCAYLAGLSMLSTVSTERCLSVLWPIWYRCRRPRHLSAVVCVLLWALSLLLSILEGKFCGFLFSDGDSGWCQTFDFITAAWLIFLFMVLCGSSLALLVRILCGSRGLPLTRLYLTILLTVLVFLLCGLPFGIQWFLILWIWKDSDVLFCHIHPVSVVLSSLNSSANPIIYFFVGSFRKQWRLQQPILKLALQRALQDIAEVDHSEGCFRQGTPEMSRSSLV
CALCRL-RAMP1, sequence (Q16602 23-461): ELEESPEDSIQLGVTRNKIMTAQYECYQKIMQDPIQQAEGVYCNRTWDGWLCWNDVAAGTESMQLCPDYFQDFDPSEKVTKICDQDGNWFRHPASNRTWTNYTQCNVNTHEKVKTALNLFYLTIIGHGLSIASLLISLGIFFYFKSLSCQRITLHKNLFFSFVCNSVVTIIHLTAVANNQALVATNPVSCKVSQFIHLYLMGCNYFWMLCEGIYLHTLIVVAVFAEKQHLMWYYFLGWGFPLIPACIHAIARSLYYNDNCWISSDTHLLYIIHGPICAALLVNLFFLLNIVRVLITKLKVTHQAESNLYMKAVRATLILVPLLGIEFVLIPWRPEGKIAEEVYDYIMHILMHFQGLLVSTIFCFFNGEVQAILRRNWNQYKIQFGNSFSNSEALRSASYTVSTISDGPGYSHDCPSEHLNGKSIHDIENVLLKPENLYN
CALCRL-RAMP1, sequence (O60894 27-148 partner): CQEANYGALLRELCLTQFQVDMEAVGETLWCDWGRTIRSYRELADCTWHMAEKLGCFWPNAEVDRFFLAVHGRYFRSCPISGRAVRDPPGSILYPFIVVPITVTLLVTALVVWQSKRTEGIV
F2R, sequence (P25116 22-425): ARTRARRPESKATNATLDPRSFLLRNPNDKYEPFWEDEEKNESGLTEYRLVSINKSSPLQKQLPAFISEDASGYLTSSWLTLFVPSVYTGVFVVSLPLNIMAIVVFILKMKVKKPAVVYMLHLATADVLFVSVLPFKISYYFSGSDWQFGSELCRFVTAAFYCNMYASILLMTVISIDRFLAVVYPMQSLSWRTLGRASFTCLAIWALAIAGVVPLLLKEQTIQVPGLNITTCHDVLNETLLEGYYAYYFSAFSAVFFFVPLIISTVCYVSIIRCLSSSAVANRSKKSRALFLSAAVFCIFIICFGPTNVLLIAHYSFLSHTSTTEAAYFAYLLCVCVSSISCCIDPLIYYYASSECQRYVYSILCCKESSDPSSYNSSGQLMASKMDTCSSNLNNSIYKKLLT
GHSR, sequence (Q92847 whole entry): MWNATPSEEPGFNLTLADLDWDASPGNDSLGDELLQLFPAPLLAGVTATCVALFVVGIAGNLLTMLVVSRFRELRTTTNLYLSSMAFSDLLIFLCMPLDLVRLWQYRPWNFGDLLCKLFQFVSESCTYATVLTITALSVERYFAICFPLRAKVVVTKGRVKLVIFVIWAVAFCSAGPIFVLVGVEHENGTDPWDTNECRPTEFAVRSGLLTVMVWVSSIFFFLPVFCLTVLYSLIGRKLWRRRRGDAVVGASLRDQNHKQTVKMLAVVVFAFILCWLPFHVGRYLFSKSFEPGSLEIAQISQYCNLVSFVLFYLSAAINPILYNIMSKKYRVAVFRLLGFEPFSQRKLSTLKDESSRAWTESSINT
GRPR, sequence (P30550 whole entry): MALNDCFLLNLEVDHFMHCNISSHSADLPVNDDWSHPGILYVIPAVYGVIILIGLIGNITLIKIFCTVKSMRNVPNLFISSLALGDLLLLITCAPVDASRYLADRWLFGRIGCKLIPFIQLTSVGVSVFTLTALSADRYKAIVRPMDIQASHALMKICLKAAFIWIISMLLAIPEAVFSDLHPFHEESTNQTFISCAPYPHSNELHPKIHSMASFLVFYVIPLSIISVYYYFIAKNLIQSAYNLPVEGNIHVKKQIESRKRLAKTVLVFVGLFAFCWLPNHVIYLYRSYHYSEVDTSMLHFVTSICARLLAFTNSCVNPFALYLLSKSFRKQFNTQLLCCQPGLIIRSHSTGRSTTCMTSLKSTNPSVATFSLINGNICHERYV

Structure (SMILES): Cc1c(Cl)cccc1NC(=O)c1sc2nc3c(cc2c1N)C(=O)CCC3 [Compound 1]
- GI50 (BR:MCF7): 46.4 nM
- GI50 (BR:MDA-MB-231): 141 nM
- GI50 (CNS:SF-539): 38.2 nM
- GI50 (LE:CCRF-CEM): 141 nM
- GI50 (LC:HOP-62): 110 nM
- GI50 (LC:NCI-H322M): 306 nM
- GI50 (OV:OVCAR-3): 48.9 nM
- GI50 (OV:OVCAR-5): 308 nM
- GI50 (OV:OVCAR-8): 279 nM
- GI50 (RE:RXF 393): 41.8 nM
- inhibition at 10 µM (ADRA2A): 8%
- inhibition at 10 µM (AVPR2): 13%
- inhibition at 10 µM (CALCRL-RAMP1): 6%
- inhibition at 10 µM (CCR3): -47%
- inhibition at 10 µM (CCR8): -7%
- inhibition at 10 µM (CHRM5): 8%
- inhibition at 10 µM (EBI2): 4%
- inhibition at 10 µM (EDG1): -6%
- inhibition at 10 µM (EDG5): -1%
- inhibition at 10 µM (F2R): 5%
- inhibition at 10 µM (GHSR): -2%
- inhibition at 10 µM (GPR92): -28%
- inhibition at 10 µM (GRPR): 11%
- inhibition at 10 µM (HRH1): 13%
- inhibition at 10 µM (HRH2): 10%
- inhibition at 10 µM (MRGPRX1): 6%
- inhibition at 10 µM (MRGPRX2): -1%
- inhibition at 10 µM (NMU1R): 2%
- inhibition at 10 µM (NTSR1): 12%
- inhibition at 10 µM (OXTR): 7%
- inhibition at 10 µM (P2RY4): -16%
- inhibition at 10 µM (PPYR1): -18%
- inhibition at 10 µM (PROKR2): -3%
- inhibition at 10 µM (PTGER3): 11%
- inhibition at 10 µM (PTGIR): 8%
- inhibition at 10 µM (PTHR1): 12%
- inhibition at 10 µM (PTHR2): 7%
- inhibition at 10 µM (SSTR1): -62%
- inhibition at 10 µM (SSTR3): 5%
- inhibition at 10 µM (TACR1): -3%
